Reference: US10894784B2, “Heteroarylbenzimidazole compounds” (BAYER PHARMA AKTIENGESELLSCHAFT, priority 2015, dated 2021)
pIC50: −log10 of the molar value. Where two headings read alike, the source gives them in different places.

Biological target: TBK1 (Homo sapiens (Human), UniProt Q9UHD2)
Assay: TBK1 low ATP kinase assay (in vitro assay 1)
Type: biochemical
[1] = in vitro assay 1, read-out: TBK1 low ATP kinase assay IC50

TBK1, sequence (Q9UHD2 whole entry): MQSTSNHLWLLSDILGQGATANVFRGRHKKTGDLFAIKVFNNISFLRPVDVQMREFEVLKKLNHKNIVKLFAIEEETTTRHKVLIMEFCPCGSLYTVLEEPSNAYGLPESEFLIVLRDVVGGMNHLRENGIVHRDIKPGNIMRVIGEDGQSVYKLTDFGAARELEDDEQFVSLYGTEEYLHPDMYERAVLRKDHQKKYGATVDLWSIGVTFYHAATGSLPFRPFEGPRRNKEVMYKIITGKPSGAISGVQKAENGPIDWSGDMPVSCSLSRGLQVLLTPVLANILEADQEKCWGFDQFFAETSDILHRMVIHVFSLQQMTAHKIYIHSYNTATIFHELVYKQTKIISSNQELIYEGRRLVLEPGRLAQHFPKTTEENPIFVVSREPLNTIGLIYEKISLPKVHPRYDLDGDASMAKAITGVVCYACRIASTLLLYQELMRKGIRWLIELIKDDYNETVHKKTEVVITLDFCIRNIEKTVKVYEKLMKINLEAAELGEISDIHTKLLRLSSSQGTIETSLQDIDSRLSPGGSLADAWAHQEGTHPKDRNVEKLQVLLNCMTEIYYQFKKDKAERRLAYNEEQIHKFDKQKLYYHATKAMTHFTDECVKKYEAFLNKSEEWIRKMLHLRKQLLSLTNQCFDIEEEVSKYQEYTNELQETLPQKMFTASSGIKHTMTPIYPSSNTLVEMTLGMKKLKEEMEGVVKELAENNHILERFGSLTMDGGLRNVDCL

Row | Structure (SMILES) | pIC50 [1] | pIC50 (TBK1 low ATP kinase assay IC50, in vitro assay 1)
1 | COc1c(Cl)ncnc1-c1ccc2nc(Nc3cc(CN4CCN(C(=O)OC(C)(C)C)CC4)ccn3)[nH]c2c1 [Compound 60.01, tert-butyl 4-[(2-{[6-(6-chloro-5-methoxypyrimidin-4-yl)-1H-benzimidazol-2-yl]amino}pyridin-4-yl)methyl]piperazine-1-carboxylate] | 6.96 | –
2 | O=C(CC1CC1)N1CCN(Cc2ccnc(Nc3nc4ccc(-c5ccnc(C(F)(F)F)n5)cc4[nH]3)c2)CC1 [Example 27.03, 2-cyclopropyl-1-(4-{[2-({6-[2-(trifluoromethyl)pyrimidin-4-yl]-1H-benzimidazol-2-yl}amino)pyridin-4-yl]methyl}piperazin-1-yl)ethanone] | 6.69 | –
3 | CN(C)c1ncnc(-c2ccc3nc(Nc4cc(CN5CCN(C(=O)C6CC6)CC5)ccn4)[nH]c3c2)c1Cl [Example 179.03, (4-{[2-({6-[5-chloro-6-(dimethylamino)pyrimidin-4-yl]-1H-benzimidazol-2-yl}amino)pyridin-4-yl]methyl}piperazin-1-yl)(cyclopropyl)methanone] | 5.90 | –
4 | O=C(CC(F)(F)F)N1CCN(Cc2ccnc(Nc3nc4ccc(-c5ccncc5OCC(F)(F)F)cc4[nH]3)c2)CC1 [Example 05.01, 3,3,3-trifluoro-1-(4-{[2-({6-[3-(2,2,2-trifluoroethoxy)pyridin-4-yl]-1H-benzimidazol-2-yl}amino)pyridin-4-yl]methyl}piperazin-1-yl)propan-1-one] | 7.28 | –
5 | O=C(C1CC1)N1CCN(Cc2ccnc(Nc3nc4ccc(-c5c(F)cncc5Cl)cc4[nH]3)c2)CC1 [Example 132.03, {4-[(2-{[6-(3-chloro-5-fluoropyridin-4-yl)-1H-benzimidazol-2-yl]amino}pyridin-4-yl)methyl]piperazin-1-yl}(cyclopropyl)methanone] | 6.59 | –
6 | CCOc1c(-c2cnn(CC)c2)ccc2nc(Nc3cc(CN4CCN(C(=O)C5CC5)CC4)ccn3)[nH]c12 [Example 53.02, cyclopropyl{4-[(2-{[7-ethoxy-6-(1-ethyl-1H-pyrazol-4-yl)-1H-benzimidazol-2-yl]amino}pyridin-4-yl)methyl]piperazin-1-yl}methanone] | 6.92 | –
7 | Cc1nc(-c2ccc3nc(Nc4cc(CN5CCN(C(=O)CC(F)(F)F)CC5)ccn4)[nH]c3c2)cc(N(C)C)n1 [Example 190.02, 1-(4-{[2-({6-[6-(dimethylamino)-2-methylpyrimidin-4-yl]-1H-benzimidazol-2-yl}amino)pyridin-4-yl]methyl}piperazin-1-yl)-3,3,3-trifluoropropan-1-one] | 6.06 | –
8 | COc1ccc(-c2ccc3nc(Nc4cc(CN5CCN(C(=O)CC(F)(F)F)CC5)ccn4)[nH]c3c2)cn1 [Example 13.03, 3,3,3-trifluoro-1-{4-[(2-{[6-(6-methoxypyridin-3-yl)-1H-benzimidazol-2-yl]amino}pyridin-4-yl)methyl]piperazin-1-yl}propan-1-one] | 6.72 | –
9 | O=C(CC(F)(F)F)N1CCN(Cc2ccnc(Nc3nc4ccc(-c5cc(N6CCCC6)ncn5)cc4[nH]3)c2)CC1 [Example 93.01, 3,3,3-trifluoro-1-(4-{[2-({6-[6-(pyrrolidin-1-yl)pyrimidin-4-yl]-1H-benzimidazol-2-yl}amino)pyridin-4-yl]methyl}piperazin-1-yl)propan-1-one] | 8.64 | –
10 | CC(c1ccnc(Nc2nc3ccc(-c4cc(C(F)F)ncn4)cc3[nH]2)c1)N1CCN(C(=O)CC(F)(F)F)CC1 (single isomer, unassigned) [Example 174.02, 1-(4-{(1R or 1S)-1-[2-({6-[6-(difluoromethyl)pyrimidin-4-yl]-1H-benzimidazol-2-yl}amino)pyridin-4-yl]ethyl}piperazin-1-yl)-3,3,3-trifluoropropan-1-one] | 8.44 | –
11 | Cn1ncnc1-c1ccc2nc(Nc3cc(CN4CCN(C(=O)C5CC5)CC4)ccn3)[nH]c2c1 [Example 41.03, cyclopropyl{4-[(2-{[6-(1-methyl-1H-1,2,4-triazol-5-yl)-1H-benzimidazol-2-yl]amino}pyridin-4-yl)methyl]piperazin-1-yl}methanone] | 6.11 | –
12 | Cc1noc(C)c1-c1cc(-c2ccc3nc(Nc4cc(CN5CCN(C(=O)CC(F)(F)F)CC5)ccn4)[nH]c3c2)ncn1 [Example 92.02, 1-(4-{[2-({6-[6-(3,5-dimethyl-1,2-oxazol-4-yl)pyrimidin-4-yl]-1H-benzimidazol-2-yl}amino)pyridin-4-yl]methyl}piperazin-1-yl)-3,3,3-trifluoropropan-1-one] | 6.35 | –
13 | CC(c1ccnc(Nc2nc3ccc(-c4ccncn4)cc3[nH]2)c1)N1CCN(C(=O)C2CC2)CC1 (racemic) [Example 23.04.02, (rac)-cyclopropyl{4-[1-(2-{[6-(pyrimidin-4-yl)-1H-benzimidazol-2-yl]amino}pyridin-4-yl)ethyl]piperazin-1-yl}methanone] | 8.62 | –
14 | CC(c1ccnc(Nc2nc3ccc(-c4cc(C(F)(F)F)ncn4)cc3[nH]2)c1)N1CCN(C(=O)CC(F)(F)F)CC1 (single isomer, unassigned) [Example 29.02.01.B, 3,3,3-trifluoro-1-(4-{(1S or 1R)-1-[2-({6-[6-(trifluoromethyl)pyrimidin-4-yl]-1H-benzimidazol-2-yl}amino)pyridin-4-yl]ethyl}piperazin-1-yl)propan-1-one] | 8.06 | –
15 | Cc1cc(-c2ccc3nc(Nc4cc(C(C)N5CCN(C(=O)C6CC6)CC5)ccn4)[nH]c3c2)ncn1 (single isomer, unassigned) [Example 30.03.03.A, cyclopropyl{4-[(1R or 1S)-1-(2-{[6-(6-methylpyrimidin-4-yl)-1H-benzimidazol-2-yl]amino}pyridin-4-yl)ethyl]piperazin-1-yl}methanone] | 8.51 | –
16 | Cc1noc(-c2ccc3nc(Nc4cc(CN5CCN(C(=O)OC(C)(C)C)CC5)ccn4)[nH]c3c2)n1 [Example 16.01.01, tert-butyl 4-[(2-{[6-(3-methyl-1,2,4-oxadiazol-5-yl)-1H-benzimidazol-2-yl]amino}pyridin-4-yl)methyl]piperazine-1-carboxylate] | 6.64 | –
17 | CN(CC1CC1)c1cc(-c2ccc3nc(Nc4cc(CN5CCN(C(=O)OC(C)(C)C)CC5)ccn4)[nH]c3c2)ncn1 [Example 141.01, tert-butyl 4-({2-[(6-{6-[(cyclopropylmethyl)(methyl)amino]pyrimidin-4-yl}-1H-benzimidazol-2-yl)amino]pyridin-4-yl}methyl)piperazin-1-carboxylate] | 7.37 | –
18 | CC(c1ccnc(Nc2nc3ccc(-c4ccnn4C(C)C)cc3[nH]2)c1)N1CCN(C(=O)OC(C)(C)C)CC1 (single isomer, unassigned) [Example 72.01, tert-butyl 4-{(1R or 1S)-1-[2-({6-[1-(propan-2-yl)-1H-pyrazol-5-yl]-1H-benzimidazol-2-yl}amino)pyridin-4-yl]ethyl}piperazine-1-carboxylate] | 6.10 | –
19 | CC(c1ccnc(Nc2nc3ccc(-c4cnn(CC5CC5)c4)c(Cl)c3[nH]2)c1)N1CCN(C(=O)C2CC2)CC1 (single isomer, unassigned) [Example 122.03, (4-{(1R or 1S)-1-[2-({7-chloro-6-[1-(cyclopropylmethyl)-1H-pyrazol-4-yl]-1H-benzimidazol-2-yl}amino)pyridin-4-yl]ethyl}piperazin-1-yl)(cyclopropyl)methanone] | 8.96 | –
20 | CSc1cc(-c2ccc3nc(Nc4cc(CN5CCN(C(=O)C6CC6)CC5)ccn4)[nH]c3c2)ncn1 [Example 95.02, cyclopropyl(4-{[2-({6-[6-(methylsulfanyl)pyrimidin-4-yl]-1H-benzimidazol-2-yl}amino)pyridin-4-yl]methyl}piperazin-1-yl)methanone] | 8.02 | –
21 | Cc1noc(-c2ccc3nc(Nc4cc(CN5CCN(c6cnccn6)CC5)ccn4)[nH]c3c2)n1 [Example 101.13, 6-(3-methyl-1,2,4-oxadiazol-5-yl)-N-(4-{[4-(pyrazin-2-yl)piperazin-1-yl]methyl}pyridin-2-yl)-1H-benzimidazol-2-amine] | 6.44 | –
22 | Cc1noc(-c2ccc3nc(Nc4cc(CN5CCN(c6ncccn6)CC5)ccn4)[nH]c3c2)n1 [Example 101.05, 6-(3-methyl-1,2,4-oxadiazol-5-yl)-N-(4-{[4-(pyrimidin-2-yl)piperazin-1-yl]methyl}pyridin-2-yl)-1H-benzimidazol-2-amine] | 6.11 | –
23 | Cc1noc(-c2ccc3nc(Nc4cc(CN5CCN(c6ccccc6)CC5)ccn4)[nH]c3c2)n1 [Example 101.04, 6-(3-methyl-1,2,4-oxadiazol-5-yl)-N-{4-[(4-phenylpiperazin-1-yl)methyl]pyridin-2-yl}-1H-benzimidazol-2-amine] | 5.52 | –
24 | Cc1noc(-c2ccc3nc(Nc4cc(C(C)N5CCN(C(=O)CC(F)(F)F)CC5)ccn4)[nH]c3c2)n1 (single isomer, unassigned) [Example 16.06.02.B, 3,3,3-trifluoro-1-{4-[(1S or 1R)-1-(2-{[6-(3-methyl-1,2,4-oxadiazol-5-yl)-1H-benzimidazol-2-yl]amino}pyridin-4-yl)ethyl]piperazin-1-yl}propan-1-one] | – | 7.76
25 | CCOc1cnc(C)cc1-c1ccc2nc(Nc3cc(CN4CCN(C(=O)C5CC5)CC4)ccn3)[nH]c2c1 [Example 09.02, cyclopropyl{4-[(2-{[6-(5-ethoxy-2-methylpyridin-4-yl)-1H-benzimidazol-2-yl]amino}pyridin-4-yl)methyl]piperazin-1-yl}methanone] | 6.53 | –
26 | CC(C)Cc1noc(-c2ccc3nc(Nc4cc(CN5CCN(C(=O)CC(F)(F)F)CC5)ccn4)[nH]c3c2)n1 [Example 18.01, 3,3,3-trifluoro-1-(4-{[2-({6-[3-(2-methylpropyl)-1,2,4-oxadiazol-5-yl]-1H-benzimidazol-2-yl}amino)pyridin-4-yl]methyl}piperazin-1-yl)propan-1-one] | 7.14 | –
27 | Cc1cc(-c2ccc3nc(Nc4cc(CN5CCN(C(=O)C6CCC6)CC5)ccn4)[nH]c3c2)ncn1 [Example 30.01.02, cyclobutyl{4-[(2-{[6-(6-methylpyrimidin-4-yl)-1H-benzimidazol-2-yl]amino}pyridin-4-yl)methyl]piperazin-1-yl}methanone] | 7.73 | –
